Reference: patent publication US9688699B2, “3-(pyrimidine-2-yl)imidazo[1,2-a]pyridines” (Bayer Pharma Aktiengesellschaft, priority 2014, dated 2017)
Where a name gives a salt, the structure may show the parent alone.

How the values were obtained:
[1] = molecular target: T1, recombinant guanylate cyclase reporter cell line (Rattus norvegicus, UniProt P19686+P20595); assay: Effect on a recombinant guanylate cyclase reporter cell line (B-2); assay type: cell-based; details: MEC = minimum effective concentration, in some cases mean values for individual determinations
T1 construct: expressed in transfected cells
T1 sequence (P19686 1-690): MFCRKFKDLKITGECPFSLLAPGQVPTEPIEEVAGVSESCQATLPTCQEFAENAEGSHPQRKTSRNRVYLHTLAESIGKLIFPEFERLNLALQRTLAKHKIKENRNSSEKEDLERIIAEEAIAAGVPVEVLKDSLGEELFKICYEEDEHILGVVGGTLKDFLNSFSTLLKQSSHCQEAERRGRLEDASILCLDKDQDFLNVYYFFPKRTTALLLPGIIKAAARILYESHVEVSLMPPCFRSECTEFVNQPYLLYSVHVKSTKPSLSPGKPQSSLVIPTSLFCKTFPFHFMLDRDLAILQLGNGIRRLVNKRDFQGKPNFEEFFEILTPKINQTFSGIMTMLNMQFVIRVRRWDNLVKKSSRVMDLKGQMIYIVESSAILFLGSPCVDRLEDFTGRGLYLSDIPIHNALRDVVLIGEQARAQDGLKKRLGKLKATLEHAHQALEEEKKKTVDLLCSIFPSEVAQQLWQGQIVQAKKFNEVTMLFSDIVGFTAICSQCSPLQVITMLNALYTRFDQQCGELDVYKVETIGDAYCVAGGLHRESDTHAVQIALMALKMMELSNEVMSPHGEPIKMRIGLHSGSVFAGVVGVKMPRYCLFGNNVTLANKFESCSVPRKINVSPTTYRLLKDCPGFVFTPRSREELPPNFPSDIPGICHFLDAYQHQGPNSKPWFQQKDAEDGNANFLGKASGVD
T1 sequence (P20595 1-619): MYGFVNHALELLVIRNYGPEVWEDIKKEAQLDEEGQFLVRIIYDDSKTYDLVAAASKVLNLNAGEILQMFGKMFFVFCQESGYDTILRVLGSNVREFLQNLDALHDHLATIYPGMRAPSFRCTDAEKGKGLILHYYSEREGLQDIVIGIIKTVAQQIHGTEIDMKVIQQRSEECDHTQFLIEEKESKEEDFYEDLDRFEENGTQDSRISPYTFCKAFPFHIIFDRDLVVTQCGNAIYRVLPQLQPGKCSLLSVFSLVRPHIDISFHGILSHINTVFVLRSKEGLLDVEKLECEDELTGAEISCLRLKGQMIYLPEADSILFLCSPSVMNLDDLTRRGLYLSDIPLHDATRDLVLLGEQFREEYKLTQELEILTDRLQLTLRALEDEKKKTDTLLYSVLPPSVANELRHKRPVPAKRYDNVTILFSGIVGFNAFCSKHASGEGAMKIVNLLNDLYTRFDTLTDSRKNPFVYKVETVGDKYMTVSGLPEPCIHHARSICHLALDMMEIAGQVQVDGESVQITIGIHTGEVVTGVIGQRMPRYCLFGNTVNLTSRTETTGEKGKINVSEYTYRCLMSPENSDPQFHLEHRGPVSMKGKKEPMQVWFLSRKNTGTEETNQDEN
Method: B-2. Effect on a Recombinant Guanylate Cyclase Reporter Cell Line
The cellular activity of the compounds according to the invention is determined using a recombinant guanylate cyclase reporter cell line, as described in F. Wunder et al., Anal. Biochem. 339, 104-112 (2005).
Representative MEC values (MEC=minimum effective concentration) for the compounds of the invention are shown in Table 1 below (in some cases as mean values for individual determinations): […]

[2] = molecular target: T2, human phosphodiesterase 5 (PDE 5) (Homo sapiens, UniProt O76074); assay: Inhibition of human phosphodiesterase 5 (PDE 5) (B-3); assay type: biochemical; details: PDE 5 preparation from human platelets; [8-3H] cGMP substrate, SPA; in some cases means of individual determinations
T2 construct: PDE 5 preparations are obtained from human platelets by disruption; from tissue; host or cells: human platelets (Mono Q ion exchange fractions with PDE 5 activity)
Method: B-3. Inhibition of Human Phosphodiesterase 5 (PDE 5)
PDE 5 preparations are obtained from human platelets by disruption (Microfluidizer®, 800 bar, 3 passes), followed by centrifugation (75 000 g, 60 min, 4° C.) and ion exchange chromatography of the supernatant on a Mono Q 10/10 column (linear sodium chloride gradient, elution with a 0.2-0.3M solution of sodium chloride in buffer (20 mM Hepes pH 7.2, 2 mM magnesium chloride). Fractions having PDE 5 activity are combined (PDE 5 preparation) and stored at −80° C.
To determine their in vitro action on human PDE 5, the test substances are dissolved in 100% DMSO and serially diluted. Typically, dilution series (1:3) from 200 μM to 0.091 μM are prepared (resulting final concentrations in the test: 4 μM to 0.0018 μM). In each case 2 μl of the diluted substance solutions are placed into the wells of microtitre plates (Isoplate-96/200 W; Perkin Elmer). Subsequently, 50 μl of a dilution of the above-described PDE 5 preparation are added. The dilution of the PDE 5 preparation is chosen such that during the later incubation less than 70% of the substrate are converted (typical dilution: 1:100; dilution buffer: 50 mM tris/hydrochloric acid pH 7.5, 8.3 mM magnesium chloride, 1.7 mM EDTA, 0.2% BSA). The substrate, [8-^3H] cyclic guanosine-3′,5′-monophosphate (1 μCi/μl; Perkin Elmer), is diluted 1:2000 with assay buffer (50 mM tris/hydrochloric acid pH 7.5, 8.3 mM magnesium chloride, 1.7 mM EDTA) to a concentration of 0.0005 μCi/μl. By addition of 50 μl (0.025 μCi) of the diluted substrate, the enzyme reaction is finally started. The test mixtures are incubated at room temperature for 60 min and the reaction is stopped by adding 25 μl of a suspension of 18 mg/ml yttrium scintillation proximity beads in water (phosphodiesterase beads for SPA assays, RPNQ 0150, Perkin Elmer). The microtitre plates are sealed with a film and left to stand at room temperature for 60 min. Subsequently, the plates are analysed for 30 s per well in a Microbeta scintillation counter (Perkin Elmer). IC50 values are determined using the graphic plot of the substance concentration against percentage PDE 5 inhibition.

MEC [1] | IC50 [2] | Structure (SMILES)
0.3 µM | 0.3 nM | Cc1nc2c(OCc3c(F)cccc3F)cccn2c1-c1nc2c(c(NC3CCC(C)(O)CC3)n1)C(C)(C)C(=O)N2 (single isomer, unassigned; diastereomer 1) [Example 28, 2-{8-[(2,6-difluorobenzyl)oxy]-2-methylimidazo[1,2-a]pyridin-3-yl)-4-[(4-hydroxy-4-methylcyclohexyl)amino]-5,5-dimethyl-5,7-dihydro-6H-pyrrolo[2,3-d]pyrimidin-6-one formate (Diastereomer 1)]
0.3 µM | 0.9 nM | Cc1nc2c(OCc3c(F)cccc3F)cccn2c1-c1nc2c(c(NC3CCC(C)(O)CC3)n1)C(C)(C)C(=O)N2 (single isomer, unassigned; diastereomer 2) [Example 29, 2-{8-[(2,6-difluorobenzyl)oxy]-2-methylimidazo[1,2-a]pyridin-3-yl}-4-[(4-hydroxy-4-methylcyclohexyl)amino]-5,5-dimethyl-5,7-dihydro-6H-pyrrolo[2,3-d]pyrimidin-6-one formate (Diastereomer 2)]
3 µM | 91 nM | Cc1nc2c(OCc3c(F)cccc3F)cccn2c1-c1nc(NCC(N)c2ccc(F)c(F)c2)c2c(n1)NC(=O)C2(C)C (single isomer, unassigned; ent-4) [Example 14, ent-4-{[2-Amino-2-(3,4-difluorophenyl)ethyl]amino}-2-{8-[(2,6-difluorobenzyl)oxy]-2-methylimidazo[1,2-a]pyridin-3-yl}-5,5-dimethyl-5,7-dihydro-6H-pyrrolo[2,3-d]pyrimidin-6-one]
1 µM | 9.8 nM | COCC(C)(N)CNc1nc(-c2c(C)nc3c(OCc4c(F)cccc4F)cccn23)nc2c1C(C)(C)C(=O)N2 (single isomer, unassigned; ent-4) [Example 45, ent-4-[(2-Amino-3-methoxy-2-methylpropyl)amino]-2-{8-[(2,6-difluorobenzyl)oxy]-2-methylimidazo[1,2-a]pyridin-3-yl}-5,5-dimethyl-5,7-dihydro-6H-pyrrolo[2,3-d]pyrimidin-6-one (Enantiomer A)]
1 µM | 120 nM | COCC(C)(N)CNc1nc(-c2c(C)nc3c(OCc4c(F)cccc4F)cccn23)nc2c1C(C)(C)C(=O)N2 (single isomer, unassigned; ent-4) [Example 46, ent-4-[(2-Amino-3-methoxy-2-methylpropyl)amino]-2-{8-[(2,6-difluorobenzyl)oxy]-2-methylimidazo[1,2-a]pyridin-3-yl}-5,5-dimethyl-5,7-dihydro-6H-pyrrolo[2,3-d]pyrimidin-6-one (Enantiomer B)]
0.3 µM | 34 nM | Cc1nc2c(OCc3c(F)cccc3F)cccn2c1-c1nc(N)c2c(n1)NC(=O)C2(C)C [Example 1, 4-Amino-2-{8-[(2,6-difluorobenzyl)oxy]-2-methylimidazo[1,2-a]pyridin-3-yl}-5,5-dimethyl-5,7-dihydro-6H-pyrrolo[2,3-d]pyrimidin-6-one]
5.3 µM | 300 nM | Cc1nc2c(OCc3c(F)cccc3F)cccn2c1-c1nc(I)c2c(n1)NC(=O)C2(C)C [Example 2, 2-{8-[(2,6-Difluorobenzyl)oxy]-2-methylimidazo[1,2-a]pyridin-3-yl}-4-iodo-5,5-dimethyl-5,7-dihydro-6H-pyrrolo[2,3-d]pyrimidin-6-one]
3 µM | 110 nM | Cc1nc2c(OCc3c(F)cccc3F)cccn2c1-c1nc(Cl)c2c(n1)NC(=O)C2(C)C [Example 4, 4-Chloro-2-{8-[(2,6-difluorobenzyl)oxy]-2-methylimidazo[1,2-a]pyridin-3-yl}-5,5-dimethyl-5,7-dihydro-6H-pyrrolo[2,3-d]pyrimidin-6-one]
3 µM | 690 nM | Cc1nc2c(OCc3c(F)cccc3F)cccn2c1-c1nc(O)c2c(n1)NC(=O)C2(C)C [Example 5, 2-{8-[(2,6-Difluorobenzyl)oxy]-2-methylimidazo[1,2-a]pyridin-3-yl}-4-hydroxy-5,5-dimethyl-5,7-dihydro-6H-pyrrolo[2,3-d]pyrimidin-6-one trifluoroacetate]
1 µM | 17 nM | Cc1nc2c(OCc3c(F)ccc(F)c3F)cccn2c1-c1nc(N)c2c(n1)NC(=O)C2(C)C [Example 9, 4-Amino-5,5-dimethyl-2-{2-methyl-8-[(2,3,6-trifluorobenzyl)oxy]imidazo[1,2-a]pyridin-3-yl}-5,7-dihydro-6H-pyrrolo[2,3-d]pyrimidin-6-one]
3 µM | 260 nM | Cc1nc2c(OCc3c(F)ccc(F)c3F)cccn2c1-c1nc(O)c2c(n1)NC(=O)C2(C)C [Example 11, 4-Hydroxy-5,5-dimethyl-2-{2-methyl-8-[(2,3,6-trifluorobenzyl)oxy]imidazo[1,2-a]pyridin-3-yl}-5,7-dihydro-6H-pyrrolo[2,3-d]pyrimidin-6-one]
0.2 µM | 3.6 nM | Cc1nc2c(OCc3c(F)cccc3F)cccn2c1-c1nc(NCC(C)(C)N)c2c(n1)NC(=O)C2(C)C [Example 12, 4-[(2-Amino-2-methylpropyl)amino]-2-{8-[(2,6-difluorobenzyl)oxy]-2-methylimidazo[1,2-a]pyridin-3-yl}-5,5-dimethyl-5,7-dihydro-6H-pyrrolo[2,3-d]pyrimidin-6-one]
3 µM | 2.5 nM | Cc1nc2c(OCc3c(F)cccc3F)cccn2c1-c1nc2c(c(N[C@H]3CC[C@H](O)CC3)n1)C(C)(C)C(=O)N2 [Example 15, 2-{8-[(2,6-Difluorobenzyl)oxy]-2-methylimidazo[1,2-a]pyridin-3-yl}-4-[(trans-4-hydroxycyclohexyl)amino]-5,5-dimethyl-5,7-dihydro-6H-pyrrolo[2,3-d]pyrimidin-6-one]
0.65 µM | 4.8 nM | Cc1nc2c(OCc3c(F)cccc3F)cccn2c1-c1nc(NCC(C)(C)O)c2c(n1)NC(=O)C2(C)C [Example 16, 2-{8-[(2,6-Difluorobenzyl)oxy]-2-methylimidazo[1,2-a]pyridin-3-yl}-4-[(2-hydroxy-2-methylpropyl)amino]-5,5-dimethyl-5,7-dihydro-6H-pyrrolo[2,3-d]pyrimidin-6-one]
